Results reported in ChEMBL document CHEMBL4033726, “Design of potent dipeptidyl peptidase IV (DPP-4) inhibitors by employing a strategy to form a salt bridge with Lys554” (Bioorg Med Chem Lett, 2017).

What follows are molecules tested against Dipeptidyl peptidase 4 (Homo sapiens, UniProt P27487).
Dipeptidyl peptidase 4, sequence (P27487 whole entry): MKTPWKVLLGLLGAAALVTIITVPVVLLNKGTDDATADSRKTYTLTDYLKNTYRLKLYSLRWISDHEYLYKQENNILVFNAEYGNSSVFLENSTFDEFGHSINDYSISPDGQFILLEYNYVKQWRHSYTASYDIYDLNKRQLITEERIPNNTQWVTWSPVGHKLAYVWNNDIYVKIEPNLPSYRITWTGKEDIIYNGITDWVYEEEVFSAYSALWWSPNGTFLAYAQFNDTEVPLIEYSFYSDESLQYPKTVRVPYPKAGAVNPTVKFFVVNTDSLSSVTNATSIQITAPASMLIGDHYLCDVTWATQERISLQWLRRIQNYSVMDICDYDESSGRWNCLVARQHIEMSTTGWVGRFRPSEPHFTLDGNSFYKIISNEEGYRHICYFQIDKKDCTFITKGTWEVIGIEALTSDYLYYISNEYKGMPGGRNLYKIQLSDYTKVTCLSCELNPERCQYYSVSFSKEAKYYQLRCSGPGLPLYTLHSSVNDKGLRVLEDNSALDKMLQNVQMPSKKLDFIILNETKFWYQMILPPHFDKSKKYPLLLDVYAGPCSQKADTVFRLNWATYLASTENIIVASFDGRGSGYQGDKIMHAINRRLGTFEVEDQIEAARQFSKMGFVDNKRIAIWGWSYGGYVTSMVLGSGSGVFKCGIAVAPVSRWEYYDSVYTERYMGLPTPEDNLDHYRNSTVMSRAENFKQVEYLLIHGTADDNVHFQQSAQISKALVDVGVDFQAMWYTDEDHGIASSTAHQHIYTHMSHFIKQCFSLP
Description: Inhibition of human DPP4 purified from Caco2 cells pre-incubated for 15 mins before Gly-Pro-pNA substrate addition and measured after 60 mins

| SMILES | IC50 [nM] |
| --- | --- |
| Cc1ccc(-c2c(CN)c(CC(C)C)nc(C)c2C(=O)OC[C@H]2CC[C@H](C(=O)O)CC2)cc1 | 80 |
| Cc1ccc(-c2c(COCc3ccc(C(=O)O)cc3)c(C)nc(CC(C)C)c2CN)cc1 | 7.2 |
| NCc1c(Cc2ccccc2)nc2ccc(OCC(N)=O)cc2c1-c1ccccc1 | 720 |
| Cc1ccc(-c2c(CN)c(CC(C)C)nc3ccc(-c4nc(C(=O)O)cs4)cc23)cc1 | 0.38 |
| Cc1ccc(-c2c(-c3nc(C(N)=O)cs3)cnc(CC(C)C)c2CN)cc1 | 2.1 |
| Cc1ccc(-c2c(CN)c(CC(C)C)nc(C)c2C(=O)OCCCC(=O)O)cc1 | 470 |
| Cc1ccc(-c2c(CN)c(CC(C)C)nc3ccc(OCCCC(=O)O)cc23)cc1 | 17 |
| CC(C)Cc1nc2ccc(Br)cc2c(-c2ccccc2)c1CN | 630 |
| CCCCCc1nc2ccc(OCC(N)=O)cc2c(-c2ccccc2)c1CN | 540 |
| Cc1ccc(-c2c(CN)c(CC(C)C)nc3ccc(OCCC(=O)O)cc23)cc1 | 29 |
| Cc1ccc(-c2c(CN)c(CC(C)C)nc3ccc(OCCCCCC(=O)O)cc23)cc1 | 6.8 |
| CC(C)Cn1c(CN)c(-c2ccccc2)c2cc(Br)ccc2c1=O | 1200 |
| Cc1ccc(-c2c(CN)c(CC(C)C)nc(C)c2C(=O)OCc2ccccc2C(=O)O)cc1 | 29 |
| Cc1ccc(-c2c(CN)c(CC(C)C)nc3ccc(OCCCCC(N)=O)cc23)cc1 | 13 |
| Cc1ccc(-c2c(CN)c(CC(C)C)nc3ccc(OCC(=O)O)cc23)cc1 | 140 |
| Cc1ccc(-c2c(CN)c(CC(C)C)nc(C)c2C(=O)OCc2cccc(C(=O)O)c2)cc1 | 87 |
| CCCCc1nc2ccc(OCC(N)=O)cc2c(-c2ccccc2)c1CN | 620 |
| Cc1ccc(-c2c(CN)c(CC(C)C)nc3ccc(-c4ccc(C(=O)O)o4)cc23)cc1 | 28 |
| CC(C)(C)Cc1nc2ccc(OCC(N)=O)cc2c(-c2ccccc2)c1CN | 250 |
| CC(C)Cn1c(CN)c(-c2ccccc2)c2cc(Br)cnc2c1=O | 1200 |
| Cc1ccc(-c2c(CN)n(CC(C)C)c(=O)c3ccc(OCC(N)=O)cc23)cc1 | 220 |
| Cc1ccc(-c2c(CCc3nc(C(N)=O)cs3)c(C)nc(CC(C)C)c2CN)cc1 | 8.5 |
| CC(C)Cc1nc2ccc(C(N)=O)cc2c(-c2ccccc2)c1CN | 170 |
| CC(=O)c1csc(-c2cnc(CC(C)C)c(CN)c2-c2ccc(C)cc2)n1 | 8.7 |
| Cc1ccc(-c2c(/C=C/c3nc(C(=O)O)cs3)c(C)nc(CC(C)C)c2CN)cc1 | 5.5 |
| Cc1ccc(-c2c(CCc3nc(C(=O)O)cs3)c(C)nc(CC(C)C)c2CN)cc1 | 2.6 |
| Cc1ccc(-c2c(CN)c(CC(C)C)nc3ccc(OCCCCC(=O)O)cc23)cc1 | 4.6 |
| Cc1ccc(-c2c(CN)c(CC(C)C)nc(C)c2C(=O)OCc2ccc(C(=O)O)cc2)cc1 | 17 |
| CCCc1nc2ccc(OCC(N)=O)cc2c(-c2ccccc2)c1CN | 510 |
| CC(C)Cn1c(CN)c(-c2ccccc2)c2cc(C(N)=O)cnc2c1=O | 470 |

These molecules were tested against Dipeptidyl peptidase 8 (Homo sapiens, UniProt Q6V1X1) (assay: Inhibition of FLAG-tagged human DPP8 expressed in 293-F cells pre-incubated for 20 mins before Gly-Pro-pNA substrate addition and measured after 90 mins).
Dipeptidyl peptidase 8, sequence (Q6V1X1 whole entry): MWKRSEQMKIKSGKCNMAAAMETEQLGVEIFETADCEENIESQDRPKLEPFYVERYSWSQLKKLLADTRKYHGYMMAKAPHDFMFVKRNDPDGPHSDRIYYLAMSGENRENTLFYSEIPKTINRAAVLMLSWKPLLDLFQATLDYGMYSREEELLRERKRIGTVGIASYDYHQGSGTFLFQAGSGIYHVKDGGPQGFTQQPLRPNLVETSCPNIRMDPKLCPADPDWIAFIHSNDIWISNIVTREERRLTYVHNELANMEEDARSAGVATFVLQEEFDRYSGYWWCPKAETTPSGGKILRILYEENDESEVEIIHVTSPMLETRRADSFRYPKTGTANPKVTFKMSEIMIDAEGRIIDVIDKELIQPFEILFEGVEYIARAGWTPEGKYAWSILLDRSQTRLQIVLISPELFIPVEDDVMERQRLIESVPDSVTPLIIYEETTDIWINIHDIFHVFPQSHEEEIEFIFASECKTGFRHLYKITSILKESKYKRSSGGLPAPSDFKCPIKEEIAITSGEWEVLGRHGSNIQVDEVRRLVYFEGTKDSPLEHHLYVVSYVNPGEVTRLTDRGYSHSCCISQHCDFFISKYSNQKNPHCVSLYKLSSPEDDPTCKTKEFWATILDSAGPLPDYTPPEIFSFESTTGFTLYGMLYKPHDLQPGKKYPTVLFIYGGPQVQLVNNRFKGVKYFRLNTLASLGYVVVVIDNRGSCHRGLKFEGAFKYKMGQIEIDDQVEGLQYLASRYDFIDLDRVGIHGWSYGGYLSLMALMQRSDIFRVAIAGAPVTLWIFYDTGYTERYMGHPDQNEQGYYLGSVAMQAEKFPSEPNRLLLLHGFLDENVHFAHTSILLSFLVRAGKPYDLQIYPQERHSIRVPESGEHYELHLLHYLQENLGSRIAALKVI
Type: cell-based

| SMILES | IC50 [nM] |
| --- | --- |
| Cc1ccc(-c2c(CN)c(CC(C)C)nc(C)c2C(=O)OCc2ccc(C(=O)O)cc2)cc1 | > 100000 |

What follows are molecules tested on Rattus norvegicus (assay: Ex vivo inhibition of DPP4 in Sprague-Dawley rat plasma at 1 mg/kg, po after 1 to 6 hrs using Gly-Pro-pNA substrate).
Type: functional

| SMILES | inhibition in vivo at 1 mg/kg [%] |
| --- | --- |
| Cc1ccc(-c2c(CN)c(CC(C)C)nc3ccc(-c4nc(C(=O)O)cs4)cc23)cc1 | > 50 |
